Where a name gives a salt, the structure may show the parent alone.
What was measured:
Kc4.3/ChIP2 = target: T1, Kc4.3/ChIP2 (Homo sapiens, UniProt Q9UK17); experiment: hKv4.3/hKChIP2 Potassium Channel Assay, Qube APC; format: cell-based; conditions: Antagonist mode; HEK-Kv4.3/KChIP2; test compound
T1 construct: host or cells: HEK
T1 sequence (Q9UK17 1-655): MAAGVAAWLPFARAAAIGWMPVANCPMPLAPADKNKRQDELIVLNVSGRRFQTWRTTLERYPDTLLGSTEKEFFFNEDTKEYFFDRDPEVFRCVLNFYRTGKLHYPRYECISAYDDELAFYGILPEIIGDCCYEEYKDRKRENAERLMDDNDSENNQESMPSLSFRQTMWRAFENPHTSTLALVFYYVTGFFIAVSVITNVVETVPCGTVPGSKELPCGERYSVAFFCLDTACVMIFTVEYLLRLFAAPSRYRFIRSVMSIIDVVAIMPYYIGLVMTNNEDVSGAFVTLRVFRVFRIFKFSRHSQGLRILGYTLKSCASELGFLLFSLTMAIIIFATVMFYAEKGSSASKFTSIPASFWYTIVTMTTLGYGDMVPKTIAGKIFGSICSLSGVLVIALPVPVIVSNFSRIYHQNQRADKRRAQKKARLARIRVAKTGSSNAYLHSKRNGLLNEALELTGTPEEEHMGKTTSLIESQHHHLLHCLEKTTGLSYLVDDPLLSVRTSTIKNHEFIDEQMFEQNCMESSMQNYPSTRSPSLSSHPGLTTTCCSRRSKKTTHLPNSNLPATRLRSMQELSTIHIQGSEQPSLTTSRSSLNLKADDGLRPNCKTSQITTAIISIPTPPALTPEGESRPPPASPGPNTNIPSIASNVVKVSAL
T1 sequence (Q9NS61 1-270 partner): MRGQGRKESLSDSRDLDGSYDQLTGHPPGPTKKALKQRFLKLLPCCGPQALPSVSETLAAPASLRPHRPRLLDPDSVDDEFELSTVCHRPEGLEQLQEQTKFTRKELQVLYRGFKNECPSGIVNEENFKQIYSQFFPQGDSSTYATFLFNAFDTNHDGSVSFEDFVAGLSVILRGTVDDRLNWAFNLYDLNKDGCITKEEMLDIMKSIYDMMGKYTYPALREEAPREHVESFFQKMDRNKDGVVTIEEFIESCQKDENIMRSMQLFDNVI
Description: (§1) Electrophysiological assays were conducted to profile three compounds ((R)-methylone, (S)-methylone, or racemic methylone) for activities on the ion channel targets specified below using the Qube electrophysiological platform. Where presented, IC50 values were determined by a non-linear, least squares regression analysis. Reference standards were run as an integral part of each assay to ensure the validity of the results obtained.
(§2) Ion Channels tested were Eurofins Panel Part Number: CPROFullQB2DR Voltage-Gated Sodium: HEK-Nav1.5 (Peak), HEK-Nav1.5 (Late, Antagonist) Voltage-Gated Potassium: HEK-Kv4.3/KChIP2, CHO-hERG, CHO-KCNQ1/minK Voltage-Gated Calcium: HEK-Cav1.2 Inward-Rectifying Voltage-Gated Potassium: HEK-Kir2.1.
(§3) Methods employed in this study have been developed and validated with reliability and reproducibility by Eurofins. Assays were performed under conditions below. [0217] hNavL.5 Sodium Channel Assay—Qube APC Onset and steady state block of peak Nay1.5 current is measured using a pulse pattern, repeated every 5 sec, consisting of a hyperpolarizing pulse to −120 mV for a 200 ms duration, depolarization to −15 mV amplitude for a 40 ms duration, followed by step to 40 mV for 200 ms and finally a 100 ms ramp (1.2 V/s) to a holding potential of −80 mV. Peak current is measured during the step to −15 mV. […] Onset and steady state block of hKv4.3 current is measured using a pulse pattern from −80 mV to 40 mV amplitude for a 110 ms duration, and finally a 100 ms ramp (1.2 V/s) to −80 mV. […] [0220] hNav1.5 Late Current Sodium Channel Assay—Qube APC Onset and steady state block of Late Nay1.5 current is measured using a pulse pattern, repeated every 5 sec, consisting of a hyperpolarizing pulse to −120 mV for a 200 ms duration, depolarization to −15 mV amplitude for a 40 ms duration, followed by step to 40 mV for 200 ms and finally a 100 ms ramp (1.2 V/s) to a holding potential of −80 mV. Late current is measured as charge current elicited during the ramp with 50 nM ATXII.

Nav1.5 Late Current = target: T2, Nav1.5 Late Current (Homo sapiens, UniProt Q14524); experiment: hNav1.5 Late Current Sodium Channel Assay, Qube APC; format: cell-based; conditions: Antagonist mode; HEK-Nav1.5 (Late), 50 nM ATXII; test compound
T2 construct: host or cells: HEK-293
Description: as §1, §2, §3

T2 sequence (Q14524 whole entry): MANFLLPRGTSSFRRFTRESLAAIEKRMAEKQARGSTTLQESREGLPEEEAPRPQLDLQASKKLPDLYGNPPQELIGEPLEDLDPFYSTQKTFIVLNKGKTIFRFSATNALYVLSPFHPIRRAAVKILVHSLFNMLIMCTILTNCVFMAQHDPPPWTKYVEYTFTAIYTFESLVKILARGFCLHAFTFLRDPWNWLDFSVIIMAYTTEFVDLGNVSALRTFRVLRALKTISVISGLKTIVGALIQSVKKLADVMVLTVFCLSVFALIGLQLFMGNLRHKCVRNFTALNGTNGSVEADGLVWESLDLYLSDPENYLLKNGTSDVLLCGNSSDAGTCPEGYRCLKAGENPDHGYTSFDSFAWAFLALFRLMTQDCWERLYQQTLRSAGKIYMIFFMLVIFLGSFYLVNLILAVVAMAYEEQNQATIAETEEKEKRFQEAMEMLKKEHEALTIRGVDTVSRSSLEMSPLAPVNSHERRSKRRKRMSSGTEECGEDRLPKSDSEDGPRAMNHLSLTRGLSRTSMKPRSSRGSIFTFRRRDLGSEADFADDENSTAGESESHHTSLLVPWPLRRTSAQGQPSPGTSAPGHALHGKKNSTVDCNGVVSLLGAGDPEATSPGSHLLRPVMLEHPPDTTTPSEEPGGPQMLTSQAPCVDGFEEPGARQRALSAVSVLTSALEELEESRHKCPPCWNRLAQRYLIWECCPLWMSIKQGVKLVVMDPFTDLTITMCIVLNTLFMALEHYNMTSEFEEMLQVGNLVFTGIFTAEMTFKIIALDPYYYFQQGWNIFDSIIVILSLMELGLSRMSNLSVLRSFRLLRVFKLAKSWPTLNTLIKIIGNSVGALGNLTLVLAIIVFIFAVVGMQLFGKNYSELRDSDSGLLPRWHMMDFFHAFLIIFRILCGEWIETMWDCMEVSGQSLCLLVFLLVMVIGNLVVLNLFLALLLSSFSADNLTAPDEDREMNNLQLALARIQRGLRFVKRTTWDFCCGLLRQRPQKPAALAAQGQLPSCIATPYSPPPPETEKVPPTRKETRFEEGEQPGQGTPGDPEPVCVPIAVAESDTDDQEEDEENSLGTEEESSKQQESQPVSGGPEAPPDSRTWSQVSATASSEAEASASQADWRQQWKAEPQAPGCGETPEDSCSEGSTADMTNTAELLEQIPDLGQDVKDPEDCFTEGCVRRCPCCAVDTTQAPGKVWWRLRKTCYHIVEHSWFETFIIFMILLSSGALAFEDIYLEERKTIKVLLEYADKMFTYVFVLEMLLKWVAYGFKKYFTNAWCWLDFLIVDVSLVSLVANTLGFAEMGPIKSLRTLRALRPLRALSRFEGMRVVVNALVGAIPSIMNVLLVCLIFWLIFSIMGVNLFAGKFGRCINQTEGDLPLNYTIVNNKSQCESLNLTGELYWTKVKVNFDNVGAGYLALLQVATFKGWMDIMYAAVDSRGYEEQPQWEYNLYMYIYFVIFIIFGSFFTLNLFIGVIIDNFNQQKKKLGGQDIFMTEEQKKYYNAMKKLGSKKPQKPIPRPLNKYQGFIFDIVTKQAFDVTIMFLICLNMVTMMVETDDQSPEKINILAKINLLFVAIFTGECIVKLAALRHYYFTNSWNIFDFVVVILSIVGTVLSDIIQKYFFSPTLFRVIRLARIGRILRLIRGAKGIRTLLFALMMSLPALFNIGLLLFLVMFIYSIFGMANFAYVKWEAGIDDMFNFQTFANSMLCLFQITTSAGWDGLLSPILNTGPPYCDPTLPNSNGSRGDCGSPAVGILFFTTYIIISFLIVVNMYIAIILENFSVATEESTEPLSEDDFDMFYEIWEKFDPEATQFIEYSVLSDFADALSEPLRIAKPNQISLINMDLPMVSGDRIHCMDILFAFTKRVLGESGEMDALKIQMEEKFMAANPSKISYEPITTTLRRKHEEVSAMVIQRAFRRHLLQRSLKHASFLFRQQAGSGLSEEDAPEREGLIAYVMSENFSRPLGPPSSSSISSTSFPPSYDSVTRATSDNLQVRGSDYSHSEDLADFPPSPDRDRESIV

| Compound | Estimated IC50 (Kc4.3/ChIP2) | Estimated IC50 (Nav1.5 Late Current) |
| --- | --- | --- |
| CN[C@H](C)C(=O)c1ccc2c(c1)OCO2 [(R)-methylone] | N/C (N/C indicates observed mean inhibition was <25%) | N/C (N/C indicates observed mean inhibition was <25%) |
| CN[C@@H](C)C(=O)c1ccc2c(c1)OCO2 [(S)-methylone] | N/C (N/C indicates observed mean inhibition was <25%) | N/C (N/C indicates observed mean inhibition was <25%) |
| CNC(C)C(=O)c1ccc2c(c1)OCO2 (stereo not drawn) [Methylone HCl, methylone HCl] | N/C (N/C indicates observed mean inhibition was <25%) | N/C (N/C indicates observed mean inhibition was <25%) |

Reference: patent US20240374558A1, “PREPARATION OF PHENE[…] […] STEREOISOMERS THEREOF AND PRECURSORS THEREOF” (priority 2022, published 2024)
